Laboratory results published in PubChem BioAssay (NCI).
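Values below derive from 48-hour exposures of cells grown in 96-well plates, with endpoints linearly interpolated between the two concentrations bracketing the appropriate inhibition level. Definition used: TGI = concentration required for complete inhibition of growth.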

Experiments:
Experiment in all cases: NCI tumour cell line growth inhibition, 48 h
A549 NSCLC = test system: A549 NSCLC
ACHN renal = test system: ACHN renal
CAKI-1 renal = test system: CAKI-1 renal
COLO 205 colon = test system: COLO 205 colon
HCT-116 colon = test system: HCT-116 colon
HL-60(TB) leukemia = test system: HL-60(TB) leukemia
HOP-62 NSCLC = test system: HOP-62 NSCLC
K-562 leukemia = test system: K-562 leukemia
NCI-H226 lung = test system: NCI-H226 lung
NCI-H23 lung = test system: NCI-H23 lung
OVCAR-4 ovarian = test system: OVCAR-4 ovarian
OVCAR-5 ovarian = test system: OVCAR-5 ovarian
OVCAR-8 ovarian = test system: OVCAR-8 ovarian
RPMI-8226 leukemia = test system: RPMI-8226 leukemia
SNB-19 CNS = test system: SNB-19 CNS
SR leukemia = test system: SR leukemia
U251 CNS = test system: U251 CNS
UACC-62 melanoma = test system: UACC-62 melanoma
SNB-75 CNS = test system: SNB-75 CNS

Compound	TGI (A549 NSCLC) [µM]	TGI (ACHN renal) [µM]	TGI (CAKI-1 renal) [µM]	TGI (COLO 205 colon) [µM]	TGI (HCT-116 colon) [µM]	TGI (HL-60(TB) leukemia) [µM]	TGI (HOP-62 NSCLC) [µM]	TGI (K-562 leukemia) [µM]	TGI (NCI-H226 lung) [µM]	TGI (NCI-H23 lung) [µM]	TGI (OVCAR-4 ovarian) [µM]	TGI (OVCAR-5 ovarian) [µM]	TGI (OVCAR-8 ovarian) [µM]	TGI (RPMI-8226 leukemia) [µM]	TGI (SNB-19 CNS) [µM]	TGI (SR leukemia) [µM]	TGI (U251 CNS) [µM]	TGI (UACC-62 melanoma) [µM]	TGI (SNB-75 CNS) [µM]
NS(=O)(=O)c1nnc(NC(=O)c2cccc([N+](=O)[O-])c2)s1	> 100	> 100	> 100	> 100	> 100	> 100	> 100	> 100	> 100	> 100	> 100	> 100	> 100	> 100	> 100	> 100	> 100	> 100	
CSc1nn(C)cc2nc(C)nc1-2	> 100	> 100	> 100	> 100	> 100	> 100	> 100	> 100	> 100	> 100		> 100	> 100	> 100	> 100	> 100	> 100	> 100	> 100
CC(C)CC1c2[nH]c3ccccc3c2C[C@H]2C(=O)NC(CCCCNC(=O)OC(C)(C)C)C(=O)N12 (stereo partly drawn)	> 100	> 100	> 100	72.2	> 100	46.9	> 100	> 100	> 100	> 100	> 100	> 100	> 100	58.5	> 100	50	> 100	> 100	
O=C1C2Cc3c(n(C(=O)c4ccccc4)c4ccccc34)CC2C(=O)N1c1ccc(Nc2ccc(N3C(=O)C4Cc5c(n(C(=O)c6ccccc6)c6ccccc56)CC4C3=O)cc2)cc1 (stereo not drawn)	> 100	> 100	> 100	> 100	> 100	46.1	> 100	> 100	> 100	> 100	> 100	> 100	> 100		> 100	> 100	> 100	> 100	> 100
CCCCNC(=NCc1ccccc1)NC#N	> 100	> 100	> 100	> 100	> 100	> 100	> 100		> 100	> 100	> 100	> 100	> 100	> 100	> 100	> 100	> 100	> 100	> 100
O=[N+]([O-])c1ccc(C2=NOC(c3ccc(Cl)cc3)N2C23CC4CC(CC(C4)C2)C3)cc1 (stereo not drawn)	> 100	> 100	> 100	> 100	> 100	> 100	> 100	> 100	> 100	> 100	> 100		> 100	> 100	> 100	> 100	> 100	> 100	> 100
CCOC(=O)CCC(NC(=O)C(N)c1ccc([N+](=O)[O-])cc1)C(=O)NC(CCC(=O)OCC)C(=O)OCC (stereo not drawn)	> 100	> 100		> 100	> 100	> 100	> 100	> 100	> 100	> 100		> 100	> 100	> 100	> 100	> 100	> 100	> 100	> 100
O=C(N/N=C(/c1nc2ccc([N+](=O)[O-])cc2[nH]c1=O)C(O)c1ccc([N+](=O)[O-])cc1)c1ccncc1 (stereo not drawn)	> 100	> 100	> 100	> 100	> 100	> 100	> 100	> 100	> 100	> 100	> 100	> 100	> 100	> 100		> 100	> 100	> 100	> 100
CCN(CC)C(=S)SC1C(=O)NC(=O)NC1=O	> 100	> 100	> 100	> 100	> 100	> 100	> 100	> 100	> 100	> 100	> 100	> 100	> 100	> 100		> 100	> 100	> 100	> 100
COc1cc(C2SCC(=O)N2c2ccc(NC(C)=O)cc2)cc(OC)c1OC (stereo not drawn)	> 100	> 100	> 100	> 100	> 100	> 100		> 100	> 100	> 100	> 100	> 100	> 100	> 100	> 100	> 100	> 100	> 100	
CCc1cc2c(c3c1CCCC3)CC1(Cc3ccc(C(=O)OC)cc3C1)C2 (stereo not drawn)	> 100	> 100		> 100	> 100	51.6	> 100	> 100	> 100	> 100	> 100	> 100	> 100	> 100	> 100	85.1	> 100	> 100	> 100
c1ccc(-c2c3c(nc4c2CC[C@H]4NC2=NCCN2)[C@@H](NC2=NCCN2)CC3)cc1	> 100	> 100	> 100	> 100	> 100	> 100	> 100	> 100	> 100	> 100	> 100	> 100	> 100			> 100	23.6	> 100	> 100
COc1cc(COC(=O)N2CC=CC2C(=O)O)c([N+](=O)[O-])cc1OC (stereo not drawn)	> 100	> 100		> 100	> 100	> 100	> 100	> 100	> 100	> 100		> 100	> 100	> 100	> 100	> 100	> 100	> 100	> 100
CC12C(=C(C#N)C(=N)N1c1ccc(Cl)c(Cl)c1)C=C(O)CC2SCCS(=O)(=O)O (stereo not drawn)	> 100	> 100	> 100	> 100	> 100	> 100	> 100	> 100	> 100	> 100	> 100		> 100	> 100	> 100	> 100	> 100	> 100	> 100
CCOc1ccc(/C=C(\Cl)c2ccc(OC)cc2)cc1	> 100	> 100		> 100	> 100	> 100	> 100	> 100	> 100	> 100	> 100		> 100	> 100	> 100	> 100	> 100	> 100	> 100
Cc1nc(C)c(N2CCN(C(=O)O)CC2)c(=O)[nH]1	> 100	> 100	> 100	> 100	> 100	> 100	> 100	> 100	> 100	> 100	> 100		> 100	> 100	> 100	> 100	> 100	> 100	
O=c1cc(NNc2ccccc2F)[nH]c(=O)[nH]1	> 100	32.3	25.7	33.8	30.6	34.3		57.6	42.8	31.6	31.5	38.7		46.2	> 100	7.37	31.9	30.9	72.5
CCOC(=O)N(C)C(=C(F)F)C(F)(F)F	> 100			44	55.2	49.7	68.9	62.1	58.3	69.8	90.8	> 100	79.4	49		20.9	> 100		93.1
C/C(=N/NC(=O)C[n+]1ccccc1)C(CN(CC(C)C)CC(C)C)C(=O)Nc1ccc(C)cc1C (stereo not drawn)	> 100	> 100		> 100	> 100	> 100	> 100	> 100		> 100	> 100	> 100	> 100	> 100	> 100	> 100		> 100	
CCCC(C)NC(=O)c1ccc(N(C)Cc2cnc3nc(N)nc(N)c3n2)cc1 (stereo not drawn)		92.5	> 100	> 100	> 100	> 100	89.4	> 100	47.6	> 100		88.6	75.2	> 100	> 100	> 100	> 100	25.7	56.6
COC(=O)c1nn2ccc3ccccc3c2c1C(=O)OC	> 100	> 100	> 100	> 100	> 100	> 100	> 100	> 100	> 100	> 100	> 100	> 100	> 100		> 100	> 100	> 100	> 100	> 100
CC(C)CCC[C@@H](C)C1CCC2[C@@H]3CCC4C[C@@H](NS(C)(=O)=O)CC[C@]4(C)C3CC[C@@]21C (stereo partly drawn)	> 100		> 100	> 100	> 100	> 100	> 100	> 100	> 100	> 100	> 100		> 100	> 100	> 100	> 100	> 100	> 100	> 100
CC/C(=N/O)c1ccc2[nH]c3c(C)cc([N+](=O)[O-])c(C)c3c2c1	> 100	> 100	> 100	> 100	> 100	> 100	> 100	> 100	> 100	> 100	> 100	> 100	> 100	> 100	> 100	> 100			> 100
CC1(C)OCN(c2ccc(S(N)(=O)=O)cc2)Cn2c1nc1ccccc12	> 100	> 100		> 100	> 100	> 100	> 100	> 100	> 100	> 100	> 100		> 100	> 100	> 100	> 100	> 100	> 100	> 100
CCCCOCOc1ccccc1P1(=O)COc2ccccc2OC1	> 100	> 100	> 100	> 100	> 100	> 100	> 100	> 100		> 100	> 100	> 100		> 100	> 100	> 100	> 100	> 100	> 100
CSC1=C(C(=O)Nc2ccc(C)cc2)C(N)=NC1=O		> 100	> 100	> 100	> 100	> 100		> 100	> 100	> 100	> 100		> 100	> 100	> 100	> 100	> 100	> 100	> 100
